Laboratory results as given in patent publication US9421181B2, “Antihypoxic pharmaceutical composition and application thereof” (CHANGZHOU HI-TECH DISTRICT MULTIPLE DIMENSION INDUSTRY …, priority 2013, dated 2016).
Counter-ions that a name gives are not always drawn.

Columns and labels:
[1] = system: mice under the condition of normobaric hypoxia; assay: Hypoxia tolerance and survival time of mice under normobaric hypoxia (sealed bottle with soda lime); format: in vivo; settings: intragastric once a day 7 days
Protocol: (§1) Choose 100 male mice with weight of 20±2 g, randomly group them into 10 by weight with each group of 10 mice, and then inject 10 ml/kg preparation to experimental groups, and the same volume of normal saline to control group by tail intravenous injection once a day for consecutive 7 days. One hour after the last injection, put each mouse into a 160 ml wild-mouth bottle, into which 5 g soda lime has been pre-added, and then seal tightly the caps with petroleum jelly. Record survival time of the mice with death as the indicator.
(§2) Choose 80 male mice with weight of 20±2 g, randomly group them into 8 by weight with each group of 10 mice, and then administer 20 ml/kg preparation intragastrically to the mice of experimental groups, and the same volume of normal saline to control group once a day for consecutive 7 days. One hour after the last administration, put each mouse into a 160 ml wild-mouth bottle, into which 5 g soda lime has been pre-added, and then seal tightly the caps with petroleum jelly. Record survival time of the mice with death as the indicator.
as §2, with “40” for “80”, “4” for “8”
as §1, with “Choose 370” for “Choose 100”, “into 37” for “into 10”, “group” for “group by tail intravenous injection”

[2] = system: mice model of acute brain hypoxia; assay: Mice model of acute brain hypoxia: breathing time after decollation; format: in vivo, Kunming mice; settings: intragastric once a day 7 days
Protocol: (§3) Randomly group 70 Kunming male mice into 7 groups: control group, group of L-carnitine 450 mg/kg, group of trimetazidine 9 mg/kg, group of vinpocetine 1.5 mg/kg, group of L-carnitine 450+trimetazidine 9 mg/kg, group of trimetazidine 9+vinpocetine 1.5 mg/kg, and group of L-carnitine 450+trimetazidine 9+vinpocetine 1.5 mg/kg, with each group of 10 mice. Administer […] preparation intragastrically to the mice of experimental groups, and the same volume of normal saline to control group once a day for consecutive 7 days. One hour after the last administration, behead the mice immediately from behind the ear, and stopwatch the breathing time of mice after their decollation.

brain tissue of the mice = assay: Content of EAA (Glu, Asp, GABA, Gly) in brain tissue after decollation; format: in vivo, Kunming mice; settings: intragastric 7 days
Protocol: as §3
Biochemical indicator test of brain tissue: After death of the mice, immediately get their brain tissues in ice bath, wash them in ice saline to remove the residual blood, and then add ice […] according to the proportion of 1:9. Under the condition of ice bath, high-speed homogenate machine (10 s per times, at intervals of 15 s for 4 times) is used to make the brain tissue into 10% cerebral homogenate. Centrifuge the homogenate under the temperature of 4° C. with the speed of 2000 r/min for 5 min to separate the supernatant, and detect the content of glutamic acid (Glu), aspartic acid (Asp), aminobutyric acid (GABA), and glycine (Gly) in the brain tissue of the mice by amino acid analyzer. After brain injury, the content of Glu, Asp, GABA and Gly, etc. (representatives of the excitatory amino acid (EAA)) in the brain is higher. In particular, one of the important mechanisms that could cause the death of secondary brain injury neurons is the excessive release of Glu. An important reason that leads to delayed neuronal death is the cascade of damage due to calcium overload in the neurons, which is caused by the activation of receptor N-methyl-D-aspartate (NMDA) by Glu. The degree to which the mitochondrial function is damaged determines the death method of neurons [Clemens J A, Stephenson D T, Smalsting E B. Global ischemia activate nuclear. Storke, 1997, 28:1073-1076].

C[N+](C)(C)C[C@H](O)CC(=O)[O-] [L-carnitine]
Prolonged Survival Time ([1]; L-carnitine 450 mg/kg alone): 31.6% | Survival Time ([1]; L-carnitine 450 mg/kg alone): 29.6 ± 3.6 min | Breathing Time after Decollation ([2]; L-carnitine 450 mg/kg): 18.6 ± 1.2 S | Asp content in brain tissue (brain tissue of the mice; L-carnitine 450 mg/kg): 15.68 ± 4.23 µmol/L | GABA content in brain tissue (brain tissue of the mice; L-carnitine 450 mg/kg): 3.71 ± 1.11 µmol/L | Glu content in brain tissue (brain tissue of the mice; L-carnitine 450 mg/kg): 18.45 ± 1.22 µmol/L | Gly content in brain tissue (brain tissue of the mice; L-carnitine 450 mg/kg): 3.54 ± 1.29 µmol/L

COc1ccc(CN2CCNCC2)c(OC)c1OC [Trimetazidine, trimetazidine hydrochloride]
Breathing Time after Decollation ([2]; trimetazidine 9 mg/kg): 18.5 ± 2.1 S | Asp content in brain tissue (brain tissue of the mice; trimetazidine 9 mg/kg): 15.21 ± 2.06 µmol/L | GABA content in brain tissue (brain tissue of the mice; trimetazidine 9 mg/kg): 3.44 ± 1.12 µmol/L | Glu content in brain tissue (brain tissue of the mice; trimetazidine 9 mg/kg): 17.02 ± 0.99 µmol/L | Gly content in brain tissue (brain tissue of the mice; trimetazidine 9 mg/kg): 3.49 ± 1.12 µmol/L

CCOC(=O)C1=C[C@]2(CC)CCCN3CCc4c(n1c1ccccc41)[C@@H]32 [Vinpocetine, vinpocetine]
Prolonged Survival Time ([1]; vinpocetine 1.5 mg/kg alone): 13.6% | Survival Time ([1]; vinpocetine 1.5 mg/kg alone): 25.1 ± 4.8 min | Breathing Time after Decollation ([2]; vinpocetine 1.5 mg/kg): 19.5 ± 1.5 S | Asp content in brain tissue (brain tissue of the mice; vinpocetine 1.5 mg/kg): 15.46 ± 2.21 µmol/L | GABA content in brain tissue (brain tissue of the mice; vinpocetine 1.5 mg/kg): 3.15 ± 1.05 µmol/L | Glu content in brain tissue (brain tissue of the mice; vinpocetine 1.5 mg/kg): 19.12 ± 2.01 µmol/L | Gly content in brain tissue (brain tissue of the mice; vinpocetine 1.5 mg/kg): 3.82 ± 1.84 µmol/L
